Reference: US8871232B2, “Self-indicating wipe for removing bacteria from a surface” (Kimberly-Clark Worldwide, Inc., priority 2007, dated 2014)

Columns and labels:
[1] = tested on: live culture yogurt; assay: Colour change of Reichardt's dye lines on paper towel after wiping a contaminated cutting board; conditions: VIVA paper towels sprayed with saturated Reichardt's dye in isopropanol with potassium hydroxide; cutting board with light smears of live culture yogurt
Text: Sheets of VIVA® paper towels (Kimberly-Clark Corporation, Neenah Wis.) were placed on a flat surface, three sheets wide. A stainless steel grilling grate (Weber Company, purchased from Home Depot store) was placed onto top of the sheets. Next a 100-milliliter saturated solution of Reichardt's dye in isopropanol with 10 milliliters of potassium hydroxide was placed into a container and then sprayed (Chromist sprayer) over the grilling grate with the VIVA® towels underneath. The grilling grate was removed and the towels were hung in a fumehood and allowed to dry. The paper towels now had multiple parallel lines of the Reichardt's dye across the paper towel. The lines were 4 centimeters apart. Onto a cutting board surface (plastic cutting boards, Kroger grocery store) was applied light smears (3 cm×15 cm) of live culture yogurt. Next, the treated VIVA® paper towels were used to wipe the surface of the cutting board.

[2] = tested on: S. aureus; assay: Wipe test: removal of S. aureus from ceramic tile and transfer to clean tile, visualised with indicator spray; conditions: WTCL wipe treated with aluminum chlorohydrate (1% W/W, add-on approx. 6 to 7%) and 1% Reichardt's dye dots; 100 microliter drops of 10^7 CFU/ml S. aureus on ceramic tile; control wipe's "X" readily visible
Description: A wire-textured coform laminate (WTCL) was treated with aluminum chlorohydrate (1% W/W) using a dip and nip procedure, with a resulting add-on of approximately 6 to 7%. The treated WTCL was then treated with a 1% solution of Reichardt's dye indicator (prepared in acetonitrile) in a small dot pattern using a syringe. Control WTCL wipe material without aluminum chlorohydrate was also used for this experiment as a control. Two 100 microliter drops of 10^7 CFU/ml S. aureus were placed onto a ceramic tile. Treated wipe and control material were both used to wipe the drop off of the tile. These wipes were then used to make an “X” onto clean tiles. These tiles were then sprayed with bacterial indicator solution (80 mg/10 mL acetonitrile) using a Chromist® spray can. The treated WTCL was then also sprayed with the indicator. Finally, the treated wipe (now clearly visible) containing the bacteria was once again used to wipe a clean area of tile. This area was then sprayed with the indicator. The “X” for the control was readily visible.

Compound	color of the Reichardt's dye lines on contact with contaminated surface [1]	transfer of bacteria from used wipe to clean tile [2]
[O-]c1c(-c2ccccc2)cc(-[n+]2c(-c3ccccc3)cc(-c3ccccc3)cc2-c2ccccc2)cc1-c1ccccc1 [Reichardt's dye, 4-(2,4,6-triphenylpyridinium-1-yl)-2,6-diphenylphenolate]	rapidly discharged	–
aluminum chlorohydrate	–	did not transfer bacteria to the clean tile
